Test results from patent publication US20210395239A1 (Hoffmann-La Roche Inc., priority 2018, published 2021).

molecular target: T1, human TLR8 (Homo sapiens, UniProt Q9NR97); assay: HEK293-Blue-hTLR-8 cells assay (SEAP reporter, R848 stimulation); type: cell-based; details: HEK293-Blue-hTLR8 cells, R848, 20 hrs; read-out: HEK/hTLR8 IC50
T1 construct: host or cells: HEK293 (HEK-Blue hTLR8)
T1 sequence (Q9NR97 27-1041): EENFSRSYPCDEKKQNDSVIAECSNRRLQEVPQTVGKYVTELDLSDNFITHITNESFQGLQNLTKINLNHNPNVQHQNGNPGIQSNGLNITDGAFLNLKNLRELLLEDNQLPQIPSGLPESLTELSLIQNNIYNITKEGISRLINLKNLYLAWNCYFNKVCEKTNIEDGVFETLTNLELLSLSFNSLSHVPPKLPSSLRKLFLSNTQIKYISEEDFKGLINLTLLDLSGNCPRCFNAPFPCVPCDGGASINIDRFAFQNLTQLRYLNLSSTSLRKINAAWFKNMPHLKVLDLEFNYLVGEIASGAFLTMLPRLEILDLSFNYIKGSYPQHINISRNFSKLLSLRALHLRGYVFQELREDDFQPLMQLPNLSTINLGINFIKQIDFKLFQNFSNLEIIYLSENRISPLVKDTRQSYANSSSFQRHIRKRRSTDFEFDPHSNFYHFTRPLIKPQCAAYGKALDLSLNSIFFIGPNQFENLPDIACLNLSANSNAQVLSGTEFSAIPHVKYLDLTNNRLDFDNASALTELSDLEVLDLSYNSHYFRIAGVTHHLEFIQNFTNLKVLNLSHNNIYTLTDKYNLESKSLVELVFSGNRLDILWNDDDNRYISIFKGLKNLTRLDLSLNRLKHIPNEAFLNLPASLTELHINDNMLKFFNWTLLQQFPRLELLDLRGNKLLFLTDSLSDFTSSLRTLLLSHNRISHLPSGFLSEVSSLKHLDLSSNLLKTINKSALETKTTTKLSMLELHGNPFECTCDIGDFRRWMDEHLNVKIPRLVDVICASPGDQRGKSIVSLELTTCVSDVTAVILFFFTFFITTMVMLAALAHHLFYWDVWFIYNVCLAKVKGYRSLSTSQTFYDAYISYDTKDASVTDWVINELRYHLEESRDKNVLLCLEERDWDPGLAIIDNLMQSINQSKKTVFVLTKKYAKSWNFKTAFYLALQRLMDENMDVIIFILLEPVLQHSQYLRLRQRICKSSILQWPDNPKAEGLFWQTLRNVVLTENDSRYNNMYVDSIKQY
How it was run: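 HEK293-Blue-hTLR8 cells (NF-κB/AP-1-driven SEAP) incubated 20 h at 37° C with serially diluted compound (1% DMSO) plus R848 stimulation. Supernatant SEAP measured with QUANTI-Blue, 2 h at 37° C, absorbance 620–655 nm.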

SMILES | IC50
COC1CN(c2ccc(N3CCN(C[C@H]4CN(c5ccc(C#N)c6ncccc56)C[C@@H](C)O4)CC3)cn2)CC1N (stereo partly drawn) [Example 43, 5-[(2S,6R)-2-[[4-[6-(3-amino-4-methoxy-pyrrolidin-1-yl)-3-pyridyl]piperazin-1-yl]methyl]-6-methyl-morpholin-4-yl]quinoline-8-carbonitrile] | 11 nM
C[C@@H]1CN(c2ccc(C#N)n3ncc(F)c23)C[C@H](CN2CCN(c3ccc(N4CC[C@@H](N)[C@H](F)C4)nc3)CC2)O1 [Example 175, 4-[(2S,6R)-2-[[4-[6-[(3R,4R)-4-amino-3-fluoro-1-piperidyl]-3-pyridyl]piperazin-1-yl]methyl]-6-methyl-morpholin-4-yl]-3-fluoro-pyrazolo[1,5-a]pyridine-7-carbonitrile] | 12 nM
C[C@@H]1CN(c2ccc(C#N)c3ncccc23)C[C@H](CN2CCN(c3ccnc(OCCN(C)C)n3)CC2)O1 [Example 30, 5-[(2S,6R)-2-[[4-[2-[2-(dimethylamino)ethoxy]pyrimidin-4-yl]piperazin-1-yl]methyl]-6-methyl-morpholin-4-yl]quinoline-8-carbonitrile] | 6 nM
C[C@@H]1CN(c2ccc(C#N)c3ncccc23)C[C@H](CN2CCN(c3cccc(N4CCN(C)CC4)n3)CC2)O1 [Example 33, 5-[(2R,6S)-2-methyl-6-[[4-[6-(4-methylpiperazin-1-yl)-2-pyridyl]piperazin-1-yl]methyl]morpholin-4-yl]quinoline-8-carbonitrile] | 7 nM
Cc1cc(N2CCN(C[C@H]3CN(c4ccc(C#N)n5ncc(F)c45)C[C@@H](C)O3)CC2)nc(N2CCNCC2)n1 [Example 67, 3-Fluoro-4-[(2R,6S)-2-methyl-6-[[4-(6-methyl-2-piperazin-1-yl-pyrimidin-4-yl)piperazin-1-yl]methyl]morpholin-4-yl]pyrazolo[1,5-a]pyridine-7-carbonitrile] | 23 nM
C[C@@H]1CN(c2cc(=O)n(C)c3ncccc23)C[C@H](CN2CC(c3ccc(N4CC5(CNCCO5)C4)cc3)C2)O1 [Example 173, 1-methyl-4-[(2R,6S)-2-methyl-6-[[3-[4-(5-oxa-2,8-diazaspiro[3.5]nonan-2-yl)phenyl]azetidin-1-yl]methyl]morpholin-4-yl]-1,8-naphthyridin-2-one] | 74 nM
C[C@@H]1CN(c2cc(=O)n(C)c3ncccc23)C[C@H](CN2CC(c3ccc(N4C[C@H]5NCCO[C@@H]5C4)cc3)C2)O1 [Example 182, 4-[(2S,6R)-2-[[3-[4-[(4aR,7aR)-3,4,4a,5,7,7a-hexahydro-2H-pyrrolo[3,4-b][1,4]oxazin-6-yl]phenyl]azetidin-1-yl]methyl]-6-methyl-morpholin-4-yl]-1-methyl-1,8-naphthyridin-2-one] | 51 nM
C[C@@H]1CN(c2ccc(C#N)c3ncccc23)C[C@H](CN2CCN(c3cnc(N4CCNCC4)nc3)CC2)O1 [Example 12, 5-[(2R,6S)-2-methyl-6-[[4-(2-piperazin-1-ylpyrimidin-5-yl)piperazin-1-yl]methyl]morpholin-4-yl]quinoline-8-carbonitrile] | 3 nM
C[C@@H]1CN(c2ccc(C#N)c3ncccc23)C[C@H](CN2CCN(c3ccc(N4CCNCC4)nc3)CC2)O1 [Example 13, 5-[(2R,6S)-2-methyl-6-[[4-(6-piperazin-1-yl-3-pyridyl)piperazin-1-yl]methyl]morpholin-4-yl]quinoline-8-carbonitrile] | 5 nM
Cc1nc(N2CCNCC2)nc(N2CCN(C[C@H]3CN(c4ccc(C#N)c5ncccc45)C[C@@H](C)O3)CC2)c1C [Example 46, 5-[(2S,6R)-2-[[4-(5,6-dimethyl-2-piperazin-1-yl-pyrimidin-4-yl)piperazin-1-yl]methyl]-6-methyl-morpholin-4-yl]quinoline-8-carbonitrile] | 9 nM
CO[C@H]1CN(c2nccc(N3CCN(C[C@H]4CN(c5ccc(C#N)c6ncccc56)C[C@@H](C)O4)CC3)n2)C[C@@H]1N [Example 26, 5-[(2S,6R)-2-[[4-[2-trans-(3-amino-4-methoxy-pyrrolidin-1-yl)pyrimidin-4-yl]piperazin-1-yl]methyl]-6-methyl-morpholin-4-yl]quinoline-8-carbonitrile] | 3 nM
Cc1cc(N2CCN(C[C@H]3CN(c4ccc(C#N)c5ncccc45)C[C@@H](C)O3)CC2)nc(N2C[C@@H]3COC[C@@H](C2)N3)n1 [Example 58, 5-[(2R,6S)-2-methyl-6-[[4-[6-methyl-2-[(1R,5R)-3-oxa-7,9-diazabicyclo[3.3.1]nonan-7-yl]pyrimidin-4-yl]piperazin-1-yl]methyl]morpholin-4-yl]quinoline-8-carbonitrile] | 4 nM
C[C@@H]1CN(c2ccc(C#N)c3ncccc23)C[C@H](CN2CCN(c3ccnc(N4CCNCC4)n3)CC2)O1 [Example 15, 5-[(2R,6S)-2-methyl-6-[[4-(2-piperazin-1-ylpyrimidin-4-yl)piperazin-1-yl]methyl]morpholin-4-yl]quinoline-8-carbonitrile] | 3 nM
C[C@@H]1CN(c2ccc(C#N)c3ncccc23)C[C@H](CN2CCN(c3ncc(N4CCNCC4)cn3)CC2)O1 [Example 17, 5-[(2R,6S)-2-methyl-6-[[4-(5-piperazin-1-ylpyrimidin-2-yl)piperazin-1-yl]methyl]morpholin-4-yl]quinoline-8-carbonitrile] | 6 nM
C[C@@H]1CN(c2ccc(C#N)c3ncccc23)C[C@H](CN2CCN(c3ccnc(N4CCC(N)CC4)n3)CC2)O1 [Example 27, 5-[(2S,6R)-2-[[4-[2-(4-amino-1-piperidyl)pyrimidin-4-yl]piperazin-1-yl]methyl]-6-methyl-morpholin-4-yl]quinoline-8-carbonitrile] | 3 nM
C[C@@H]1CN(c2ccc(C#N)c3ncccc23)C[C@H](CN2CCN(c3ccnc(N4CCNCC(O)C4)n3)CC2)O1 (stereo partly drawn) [Example 25, 5-[(2S,6R)-2-[[4-[2-(6-hydroxy-1,4-diazepan-1-yl)pyrimidin-4-yl]piperazin-1-yl]methyl]-6-methyl-morpholin-4-yl]quinoline-8-carbonitrile] | 7 nM
Cc1cc(N2CCNCC2)nc(N2CCN(C[C@H]3CN(c4ccc(C#N)c5ncccc45)C[C@@H](C)O3)CC2)n1 [Example 68, 5-[(2R,6S)-2-methyl-6-[[4-(4-methyl-6-piperazin-1-yl-pyrimidin-2-yl)piperazin-1-yl]methyl]morpholin-4-yl]quinoline-8-carbonitrile] | 2 nM
COC1CNC[C@H]1Nc1cccc(N2CCN(C[C@H]3CN(c4ccc(C#N)c5ncccc45)C[C@@H](C)O3)CC2)n1 (stereo in doubt) [Example 39, 5-[(2S,6R)-2-[[4-[6-[[(3R,4R)-4-methoxypyrrolidin-3-yl]amino]-2-pyridyl]piperazin-1-yl]methyl]-6-methyl-morpholin-4-yl]quinoline-8-carbonitrile] | 23 nM
C[C@@H]1CN(c2ccc(C#N)c3ncccc23)C[C@H](CN2CCN(c3cccc(N4CCNCC4)n3)CC2)O1 [Example 10, 5-[(2R,6S)-2-methyl-6-[[4-(6-piperazin-1-yl-2-pyridyl)piperazin-1-yl]methyl]morpholin-4-yl]quinoline-8-carbonitrile] | 10 nM
C[C@@H]1CN(c2ccc(C#N)c3ncccc23)C[C@H](CN2CCN(c3cccc(N[C@H]4CNC[C@H]4F)n3)CC2)O1 [Example 37, 5-[(2S,6R)-2-[[4-[6-[[(3S,4R)-4-fluoropyrrolidin-3-yl]amino]-2-pyridyl]piperazin-1-yl]methyl]-6-methyl-morpholin-4-yl]quinoline-8-carbonitrile] | 30 nM
